Experimental data from patent publication US4220644A, “7-Acylamino-3-(substituted tetrazolyl thiomethyl) cephalosporins” (SmithKline Corporation, priority 1976, dated 1980).
In brackets after ≈: the same amount, converted by molar mass. Like-named read-outs stand apart in the source and are kept apart here.

Tests used:
[1] = system: Shigella HH 117; test: MIC in vitro (Table 1), Shigella HH 117; assay type: cell-based; settings: Shigella, HH117, in vitro, read-out: MIC
Description: (§1) The compounds of Formula I have antibacterial activity against both Gram-positive and Gram-negative organisms. […] Compound names corresponding to numbers are given in the experimental section. For comparative purposes, data for cephamandole, which is 7-mandelamido-3-(1-methyltetrazol-5-ylthiomethyl)-3-cephem-4-carboxylic acid, is also given in Tables 1 and 2.

[2] = system: Kleb. pneumo. SK 1200; test: MIC in vitro (Table 1), Kleb. pneumo. SK 1200; assay type: cell-based
Description: (§2) Compound names corresponding to numbers are given in the experimental section. For comparative purposes, data for cephamandole, which is 7-mandelamido-3-(1-methyltetrazol-5-ylthiomethyl)-3-cephem-4-carboxylic acid, is also given in Tables 1 and 2.

[3] = system: S. aureus SK 23390; test: MIC in vitro (Table 1), S. aureus SK 23390; assay type: cell-based; settings: Staphylococcus aureus
Description: as §2

[4] = system: E. coli HH 33779; test: MIC in vitro (Table 1), E. coli HH 33779; assay type: cell-based; settings: Escherichia coli
Description: as §2

[5] = system: Strep. Faecalis HH 34358; test: MIC in vitro (Table 1), Strep. Faecalis HH 34358; assay type: cell-based; settings: Enterococcus faecalis
Description: as §2

[6] = system: Proteus morgani 179; test: MIC in vitro (Table 1), Proteus morgani 179; assay type: cell-based; settings: read-out: MIC
Description: as §2

[7] = system: Kleb. pneumo. SK 4200; test: MIC in vitro (Table 1), Kleb. pneumo. SK 4200; assay type: cell-based
Description: as §2

[8] = system: E. coli 12140; test: In vivo mouse protection (Table 2), E. coli 12140
Description: as §2

[9] = system: E. coli SK 12140; test: MIC in vitro (Table 1), E. coli SK 12140; assay type: cell-based; settings: Escherichia coli, SK12140, in vitro
Description: as §2

[10] = system: Entero. cloacae HH 31254; test: MIC in vitro (Table 1), Entero. cloacae HH 31254; assay type: cell-based; settings: Enterobacter cloacae
Description: as §2

[11] = system: Pseudo. sp. HH 63; test: MIC in vitro (Table 1), Pseudo. sp. HH 63; assay type: cell-based; settings: in vitro, Pseudo. sp. HH 63; read-out: MIC
Description: as §1

[12] = system: Kleb. pneumo. 4200; test: In vivo mouse protection (Table 2), Kleb. pneumo. 4200
Description: as §2

[13] = system: S. aureus HH 127; test: MIC in vitro (Table 1), S. aureus HH 127; assay type: cell-based; settings: Staphylococcus aureus
Description: as §2

[14] = system: Salmonella ATCC 12176; test: MIC in vitro (Table 1), Salmonella ATCC 12176; assay type: cell-based
Description: as §1

[15] = system: Serra. Marc. ATCC 13880; test: MIC in vitro (Table 1), Serra. Marc. ATCC 13880; assay type: cell-based
Description: as §2

[16] = system: Entero. aerog. ATCC 13048; test: MIC in vitro (Table 1), Entero. aerog. ATCC 13048; assay type: cell-based
Description: as §2

[17] = SK23390, in vitro, S. aureus SK 23390, read-out: MIC
[18] = in vitro, Strep. Faecalis HH 34358, read-out: MIC
[19] = Escherichia coli, 12140, po, E. coli 12140, p.o.
[20] = Escherichia coli, 12140, sc, E. coli 12140, s.c.
[21] = Salmonella, ATCC12176, in vitro, read-out: MIC
[22] = HH33779, in vitro, E. coli HH 33779, read-out: MIC
[23] = in vitro, Kleb. pneumo. SK 4200, read-out: MIC
[24] = HH31254, in vitro, Entero. cloacae HH 31254, read-out: MIC
[25] = in vitro, Entero. aerog. ATCC 13048, read-out: MIC
[26] = HH127, in vitro, S. aureus HH 127, read-out: MIC

NC(=O)CCn1nnnc1SCC1=C(C(=O)O)N2C(=O)C(NC(=O)[C@H](N)c3ccc(O)cc3)[C@H]2SC1 (stereo partly drawn) [X, 7-(D-α-Amino-4-hydroxyphenylacetamido)-3-[1-(2-carbamoylethyl)tetrazol-5-ylthiomethyl]-3-cephem-4-carboxylic acid]
MIC [1]: 1.6 µg/mL (≈ 2.99 µM)
MIC ([2]; read-out: MIC): 3.1 µg/mL (≈ 5.8 µM)
MIC [3, 17]: 12.5 µg/mL (≈ 23.4 µM)
MIC ([4]; HH33779): 1.6 µg/mL (≈ 2.99 µM)
MIC [5, 18]: 25 µg/mL (≈ 46.8 µM)
MIC [6]: 25 µg/mL (≈ 46.8 µM)
MIC [7]: 1.6 µg/mL (≈ 2.99 µM)
ED50 [8, 19]: 25 mg/kg
ED50 [8, 20]: 0.78 mg/kg
MIC [9]: 1.6 µg/mL (≈ 2.99 µM)
MIC ([10]; HH31254): 1.6 µg/mL (≈ 2.99 µM)
MIC [11]: > 200 µg/mL
ED50 ([12]; po, Kleb. pneumo. 4200, p.o.): 15.6 mg/kg
ED50 ([12]; sc, Kleb. pneumo. 4200, s.c.): 0.62 mg/kg
MIC ([13]; HH127): 6.3 µg/mL (≈ 11.8 µM)
MIC [14, 21]: 0.8 µg/mL (≈ 1.5 µM)

O=C(O)CCCn1nnnc1SCC1=C(C(=O)O)N2C(=O)C(NC(=O)[C@H](O)c3ccccc3)[C@H]2SC1 (stereo partly drawn) [XII, 7-D-Mandelamido-3-[1-(3-carboxypropyl)tetrazol-5-ylthiomethyl]-3-cephem-4-carboxylic acid]
MIC [1]: 0.4 µg/mL (≈ 0.748 µM)
MIC [2]: 1.6 µg/mL (≈ 2.99 µM)
MIC ([2]; read-out: MIC): 0.8 µg/mL (≈ 1.5 µM)
MIC ([3]; SK23390): 0.4 µg/mL (≈ 0.748 µM)
MIC [4, 22]: 1.6 µg/mL (≈ 2.99 µM)
MIC [5]: 12.5 µg/mL (≈ 23.4 µM)
MIC [15]: 12.5 µg/mL (≈ 23.4 µM)
MIC [16]: 3.1 µg/mL (≈ 5.8 µM)
MIC [7, 23]: 1.6 µg/mL (≈ 2.99 µM)
ED50 [8, 19]: > 50 mg/kg
ED50 [8, 20]: 1.84 mg/kg
MIC ([9]; read-out: MIC): 1.6 µg/mL (≈ 2.99 µM)
MIC [10, 24]: 0.8 µg/mL (≈ 1.5 µM)
MIC [11]: > 200 µg/mL
ED50 ([12]; sc, Kleb. pneumo. 4200, s.c.): 2.9 mg/kg
MIC ([13]; HH127): 3.1 µg/mL (≈ 5.8 µM)
MIC [14, 21]: 0.4 µg/mL (≈ 0.748 µM)
MIC ([14]; in vitro): 0.8 µg/mL (≈ 1.5 µM)

O=C(O)CCCCCn1nnnc1SCC1=C(C(=O)O)N2C(=O)C(NC(=O)[C@H](O)c3ccccc3)[C@H]2SC1 (stereo partly drawn) [XIII, 7-D-Mandelamido-3-[1-(5-carboxypentyl)tetrazol-5-ylthiomethyl]-3-cephem-4-carboxylic acid]
MIC [1]: 0.8 µg/mL (≈ 1.42 µM)
MIC ([2]; read-out: MIC): 1.6 µg/mL (≈ 2.84 µM)
MIC ([3]; SK23390): 0.8 µg/mL (≈ 1.42 µM)
MIC [4, 22]: 3.1 µg/mL (≈ 5.51 µM)
MIC [5, 18]: 25 µg/mL (≈ 44.4 µM)
MIC [6]: 1.6 µg/mL (≈ 2.84 µM)
MIC [16, 25]: 6.3 µg/mL (≈ 11.2 µM)
MIC [7]: 0.8 µg/mL (≈ 1.42 µM)
ED50 [8, 20]: 1.56 mg/kg
MIC ([9]; read-out: MIC): 1.6 µg/mL (≈ 2.84 µM)
MIC ([10]; HH31254): 0.8 µg/mL (≈ 1.42 µM)
MIC [11]: > 200 µg/mL
ED50 ([12]; sc, Kleb. pneumo. 4200, s.c.): 0.54 mg/kg
MIC [13, 26]: 3.1 µg/mL (≈ 5.51 µM)
MIC [14, 21]: 1.6 µg/mL (≈ 2.84 µM)

NC(=O)CCCCCn1nnnc1SCC1=C(C(=O)O)N2C(=O)C(NC(=O)[C@H](O)c3ccccc3)[C@H]2SC1 (stereo partly drawn) [XIV, 7-D-Mandelamido-3-[1-(5-carbamoylpentyl)tetrazol-5-ylthiomethyl]-3-cephem-4-carboxylic acid]
MIC [1]: 0.8 µg/mL (≈ 1.42 µM)
MIC ([2]; read-out: MIC): 3.1 µg/mL (≈ 5.52 µM)
MIC ([3]; SK23390): 0.4 µg/mL (≈ 0.712 µM)
MIC [4, 22]: 3.1 µg/mL (≈ 5.52 µM)
MIC [5]: 12.5 µg/mL (≈ 22.3 µM)
MIC [15]: 25 µg/mL (≈ 44.5 µM)
MIC [16, 25]: 6.3 µg/mL (≈ 11.2 µM)
MIC [7, 23]: 1.6 µg/mL (≈ 2.85 µM)
ED50 [8, 20]: 1.1 mg/kg
MIC ([9]; read-out: MIC): 3.1 µg/mL (≈ 5.52 µM)
MIC [10, 24]: 1.6 µg/mL (≈ 2.85 µM)
MIC [11]: > 200 µg/mL
ED50 ([12]; sc, Kleb. pneumo. 4200, s.c.): 1.1 mg/kg
MIC [13, 26]: 1.6 µg/mL (≈ 2.85 µM)
MIC [14, 21]: 3.1 µg/mL (≈ 5.52 µM)

NC(=O)CCCn1nnnc1SCC1=C(C(=O)O)N2C(=O)C(NC(=O)CSC(F)(F)F)[C@H]2SC1 (stereo partly shown) [XX, 7-Trifluoromethylmercaptoacetamido-3-[1-(3-carbamoylpropyl)tetrazol-5-ylthiomethyl]-3-cephem-4-carboxylic acid]
MIC [1]: 0.2 µg/mL (≈ 0.369 µM)
MIC [2]: 0.4 µg/mL (≈ 0.739 µM)
MIC [3, 17]: 0.2 µg/mL (≈ 0.369 µM)
MIC [4, 22]: 0.8 µg/mL (≈ 1.48 µM)
MIC [5, 18]: 6.3 µg/mL (≈ 11.6 µM)
MIC [6]: 12.5 µg/mL (≈ 23.1 µM)
MIC [16]: 3.1 µg/mL (≈ 5.72 µM)
MIC [7]: 0.4 µg/mL (≈ 0.739 µM)
ED50 [8, 19]: 21.5 mg/kg
ED50 [8, 20]: 0.7 mg/kg
MIC ([9]; read-out: MIC): 0.8 µg/mL (≈ 1.48 µM)
MIC [10, 24]: 0.8 µg/mL (≈ 1.48 µM)
MIC [11]: > 200 µg/mL
MIC [13, 26]: 0.4 µg/mL (≈ 0.739 µM)
MIC [14, 21]: 0.2 µg/mL (≈ 0.369 µM)
